The values that follow come from PMC6934184, “Selective DNA-PKcs inhibition extends the therapeutic index of localized radiotherapy and chemotherapy” (The Journal of Clinical Investigation, 2019).

The target of this assay is T1, RET Y791F (Homo sapiens, UniProt P07949, Y791F).
T1 construct: purchased Thermo Fisher Scientific (Life Technologies) SelectScreen
Put plainly: SelectScreen Z'LYTE. In kind it is biochemical. How it is done:
The in vitro kinase selectivity of NU5455 was determined using the SelectScreen Broad Assay Panel (Thermo Fisher Scientific) involving activity and binding assays (Supplemental Table 1). […] Class IA PI3Ks were measured using the p85α subunit.
Kinase [ATP] % Assay Kinase [ATP] % Assay Kinase [ATP] % Assay Kinase [ATP] % Assay […]
RET Y791F Km app 9.2 Z PIK3CG (p110 gamma) Km app 2.9 A KIT D816H n/a -0.2 L TAOK2 (TAO1) Km app -5.1 Z […]
SGK (SGK1) Km app 8.5 Z MAP4K2 (GCK) Km app 2.7 Z TLK2 n/a -0.3 L STK38 (NDR) n/a -5.9 L
MERTK (cMER) Km app 8.3 Z CDK2/cyclin A Km app 2.7 Z TGFBR1 (ALK5) n/a -0.4 L MATK (HYL) Km app -6.3 Z
FYN Km app 8.3 Z EPHA1 Km app 2.7 Z CLK3 Km app -0.5 Z ABL1 E255K Km app -6.6 Z
TEC n/a 8.1 L CDK2/cyclin E1 n/a 2.7 L MAP3K14 (NIK) n/a -0.5 L STK17A (DRAK1) n/a -6.6 L
KIT V654A n/a 8.1 L TESK2 n/a 2.7 L AKT3 (PKB gamma) Km app -0.5 Z JAK2 JH1 JH2 Km app -6.7 Z
ROS1 Km app 8.0 Z SPHK1 Km app 2.7 A MAP3K9 (MLK1) Km app -0.5 Z PRKACB (PRKAC beta) n/a -6.8 L
FGFR3 K650E Km app 7.9 Z AMPK A2/B1/G1 Km app 2.6 Z IKBKB (IKK beta) Km app -0.6 Z PDGFRA (PDGFR alpha) Km app -6.8 Z
RAF1 (cRAF) Y340D Y341D 100 7.9 Z DYRK3 Km app 2.6 Z CAMK2A (CaMKII alpha) Km app -0.6 Z NEK9 Km app -7.2 Z
PI4KA (PI4K alpha) 10 7.8 A CSNK1D (CK1 delta) Km app 2.6 Z PRKCB1 (PKC beta I) Km app -0.7 Z PDK1 Km app -7.3 Z
HIPK2 Km app 7.8 Z ACVR2A n/a 2.5 L TTK n/a -0.7 L RPS6KB1 (p70S6K) Km app -7.8 Z […]

T1 sequence (P07949 29-1114 Y791F): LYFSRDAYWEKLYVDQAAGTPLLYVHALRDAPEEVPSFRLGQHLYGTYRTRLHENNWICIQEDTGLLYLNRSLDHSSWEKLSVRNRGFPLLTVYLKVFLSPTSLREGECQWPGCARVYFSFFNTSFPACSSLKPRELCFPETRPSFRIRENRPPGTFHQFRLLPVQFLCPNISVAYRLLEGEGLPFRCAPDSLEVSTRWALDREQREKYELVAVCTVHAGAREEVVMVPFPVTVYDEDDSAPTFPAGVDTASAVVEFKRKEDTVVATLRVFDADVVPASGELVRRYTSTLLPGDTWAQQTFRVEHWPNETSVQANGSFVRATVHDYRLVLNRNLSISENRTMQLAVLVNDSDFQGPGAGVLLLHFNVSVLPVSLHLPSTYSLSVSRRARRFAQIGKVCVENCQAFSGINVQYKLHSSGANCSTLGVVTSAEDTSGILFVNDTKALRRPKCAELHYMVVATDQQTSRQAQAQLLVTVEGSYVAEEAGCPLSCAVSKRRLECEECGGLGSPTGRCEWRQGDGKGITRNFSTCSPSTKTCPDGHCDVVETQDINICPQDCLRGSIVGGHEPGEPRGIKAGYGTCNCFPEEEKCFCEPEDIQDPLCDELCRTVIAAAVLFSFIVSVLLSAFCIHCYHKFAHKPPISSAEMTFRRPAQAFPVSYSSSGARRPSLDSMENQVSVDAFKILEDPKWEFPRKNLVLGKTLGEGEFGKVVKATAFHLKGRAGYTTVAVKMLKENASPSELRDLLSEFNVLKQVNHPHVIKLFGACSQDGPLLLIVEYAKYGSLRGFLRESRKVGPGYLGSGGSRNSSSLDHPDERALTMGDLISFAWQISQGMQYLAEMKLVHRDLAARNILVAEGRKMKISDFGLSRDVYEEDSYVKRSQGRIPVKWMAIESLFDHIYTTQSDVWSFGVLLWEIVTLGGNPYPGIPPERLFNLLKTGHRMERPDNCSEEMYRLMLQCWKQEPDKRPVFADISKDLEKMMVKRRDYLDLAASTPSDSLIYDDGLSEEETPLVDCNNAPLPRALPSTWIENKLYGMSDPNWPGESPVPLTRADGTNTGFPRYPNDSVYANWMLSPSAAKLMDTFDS

What is called inhibition is the share of the control response that was lost under treatment. Turning to `CN(C(=O)CN1CCOCC1)c1ccc2sc3c(-c4cccc5c(=O)cc(N6CC7CCC(C6)O7)oc45)cccc3c2c1` [NU5455], the inhibition at 1 µM was 9.2%.
